“Also recorded” adds a separate entry of the source.

For data set [1], the system named is E. coli strain IH 3080 (018:K1). Kind of data set: MIC of antibiotics in the presence of polymyxin nonapeptide, microtiter plate, E. coli. The settings on record: E. coli. Format: cell-based. As for the experimental part: (§1) Methods. Smooth Salmonella typhimurium LT2 strain SL 696 (Wilkinson et al 1972 J. Gen. Microbiol. 70,527) was used as indicator organism. It was grown in Luria broth (Miller 1972. Experience in molecular genetics, Cold Spring Harbor Laboratory, New York) at 37° C. in a rotary shaker (220 rpm) into early logarithmic growth phase (Klett 40 units, Klett-Summerson colorimeter, red filter) washed with 0.9% NaCl and resuspended in 0.9% NaCl (final optical density 120 Klett units corresponding to approx. 10^9 cells/ml).
(§2) Erythromycin ethylsuccinate stock solution was prepared by dissolving 5.5 mg of erythromycin […] with 2 ml of 96% ethanol whereafter deionized water was added to a final volume of 5.5 ml. Other antibiotics were readily dissolved in deionized water.
(§3) Experimental procedure: Davis minimal growth medium (Sanderson et al, 1972, Bact. Rev. 36,608) containing glucose (1 g/l), casaminoacids (1 g/l. Difco), tryptophan (20 mg/l), and increasing amounts of a particular antibiotic was inoculated with 10^4 cells per ml of a fresh suspension of indicator bacteria. Aliquots (200 μl) of this inoculated medium were pipetted in wells of a microtiter plate (Titertek, CAT NO. 76-213-05, Flow Laboratories, United States). Each well already contained increasing amounts of the particular polycationic agent in 30 μl of 0.9% NaCl. The plates were sealed with adhesive tape and incubated at 37° C. for 18 h.
Methods. The methods were those presented in Example 3 except that E. coli was used as the test organism. The E. coli strain was IH 3080 (018:K1) isolated from the cerebrospinal fluid of a neonate with meningitis.
(§4) Methods. The known compound, polymyxin E nonapeptide (colistin E nonapeptide, Japanese patent specification Nos. 4178/1971 and 51355/1972) having the following formula: [drawing 5] where leu is leucine, thr is threonine, and dab is diaminobutyric acid, was prepared from polymyxin E (colistin) using an enzymatic ficin treatment as described by Chihara et al (Agr. Biol. Chem. 37,2455, 1973).

Data set [2] relates to E. coli strains IHE 3080, EH 817, IHE 11038, IHE 11055, IHE 11167. Kind of data set: Sensitization of E. coli strains to killing by 10% normal human serum (complement). Type of data set: cell-based. As for the experimental part: Methods. The strains used were smooth Salmonella typhirmurium LT2 strain SL 696 (Wilkinson et al 1972 J. Gen. Microbiol. 70, 527) and the following E. coli strains isolated at the National Public Health Institute, Helsinki: IHE 3080 (018,K1), EH 817 (018,K1^- derivative of IHE 3080), IHE 11038 (018,K5), IHE 11055 (02,K1), and IHE 11167 (04,K12). Bacteria were grown in Luria broth (Miller 1972. Experiments in molecular genetics, Cold Spring Harbor Laboratory, New York) at 37° C. in a rotary shaker (220 rpm) into early logaritmic growth phase (Klett 40 units, Klett-Summerson colorimeter, red filter) washed with PBS (phosphate buffered saline, 8.0 g of NaCl, 0.2 g of KCl, 1.44 g of Na2 HPO4 x2H2 O and 0.2 g of KH2 PO4 per liter) and resuspended in PBS, (final optical density 120 Klett units corresponding to approx. 10^9 cells/ml).
Pooled normal human serum from 39 healthy blood donors was used as complement source. It was stored at -70° C. before use.
Experimental procedure: 10% NHS in PBS was inoculated with approx. 300 cells of freshly grown bacteria and pipetted in 200 μl aliquots in wells of mictrotiter plate (Titertek®, CAT NO. 76-213-05). The wells already contained increasing amounts of PMBN in 30 μl of 0.9% NaCl. […] The agar plates were incubated overnight at 37° C. and the developed colonies were counted.

The test system of data set [3] is Salmonella typhimurium LT2 strain SL 696. Kind of data set: MIC of antibiotics in the presence of polymyxin nonapeptide, microtiter plate, S. typhimurium. Type of data set: cell-based. The settings on record: S. typhimurium SL 696. As for the experimental part: as §1, §2, §3, §4
Data set [4] relates to mice. Particulars: Chihara et al, Kajiwara et al; cited from earlier work.
The conditions of data set [5]: Chihara et al 1973, 1974; cited from earlier work.

polymyxin B nonapeptide [PMBN]: in data set [1], the “amount of PMBN sufficient to sensitize E. coli to erythromycin and fusidic acid by a factor of 30” value was 0.3 µg. The “concentration of PMBN that sensitized the strains to killing by 10% NHS” value in data set [2] (E. coli strains, 10% normal human serum, 2 h) worked out at 0.3 µg/mL. Moreover, the “bactericidal action of serum in the presence of PMBN after inactivation of complement” value in data set [2] (complement destroyed by heat (30 min at 56° C.) or zymosan A) was “the serum lost its capacity to kill bacteria; also recorded: NHS lost its bactericidal, PMBN-dependent action”. In addition, the “concentration of PMBN required to sensitize the bacteria to most antibiotics by a factor of 10-30” value in data set [3] is recorded as 1-3 μg/ml.

As for polymyxin E nonapeptide [PMEN], the “toxicity to eukaryotes (mice) compared with parent compound colistin” value in data set [4] was “significantly less toxic”. In data set [5], the “antibacterial activity compared with colistin” value is on record as “lack the antibacterial activity of colistin”.

These data come from US4510132A, “Compounds for use in antibacterial therapy” (priority 1982, dated 1985).
